Read-outs that look alike come from different tables or passages of the source.
Experiments:
[1] = tested on: SARS-CoV-2 clinical omicron isolate
[2] = tested on: SARS-CoV-2 clinical omicron isolate; experiment: microbe, parasite or virus in culture; conditions: Severe acute respiratory syndrome coronavirus 2, Calu-3

Row | SMILES | Therapeutic range: CC50/IC50 (CTG) ([1]; human, calu-3 cells) | Therapeutic range: CC50/IC50 (IncuCyte) ([1]; human, calu-3 cells) | Therapeutic range: CC50/IC50 (MTT) ([1]; human, calu-3 cells) | IC50 [2] [nM] | Therapeutic range: CC50/IC50 (CTG) ([1]; SARS-CoV-2 omicron in Calu-3 cells, CC50 by CTG) | Therapeutic range: CC50/IC50 (IncuCyte) ([1]; SARS-CoV-2 omicron in Calu-3 cells, CC50 by IncuCyte) | Therapeutic range: CC50/IC50 (MTT) ([1]; SARS-CoV-2 omicron in Calu-3 cells, CC50 by MTT)
1 | [H]/N=C(/N)N/C(=N/[H])NCCc1ccccc1 [Phenformin] | CTG: 1674 | IncuCyte: 1111 | MTT: 1123 | 1350 | – | – | –
2 | COc1[nH]c(=O)c(C(=O)[C@@H](C)C[C@H](C)[C@@H](Cl)CCl)c(O)c1OC [Atpenin A5, atpenin A5] | – | – | – | – | CTG: 1.3 | IncuCyte: > 117.6 | MTT: 1.8
